These compounds were tested against T1, recombinant human 11 β-HSD1 (Homo sapiens, UniProt P28845) (assay: 11 β-HSD1 SPA Assay (Scintillation Proximity Assay)).
T1 construct: made in house; host or cells: E. coli
Assay type: biochemical
Outline: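 Scintillation proximity read-out of cortisol formed from 40 nM [3H]cortisone by purified recombinant human enzyme (30-100 nM, E. coli) with 1 mM NADPH, pH7.4, 2 hours at room temperature; beads with cortisol antibody and glycyrrhetinic acid stop the reaction, read next day. IC50 derived from inhibition normalised to background and maximal wells.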

T1 sequence (P28845 whole entry): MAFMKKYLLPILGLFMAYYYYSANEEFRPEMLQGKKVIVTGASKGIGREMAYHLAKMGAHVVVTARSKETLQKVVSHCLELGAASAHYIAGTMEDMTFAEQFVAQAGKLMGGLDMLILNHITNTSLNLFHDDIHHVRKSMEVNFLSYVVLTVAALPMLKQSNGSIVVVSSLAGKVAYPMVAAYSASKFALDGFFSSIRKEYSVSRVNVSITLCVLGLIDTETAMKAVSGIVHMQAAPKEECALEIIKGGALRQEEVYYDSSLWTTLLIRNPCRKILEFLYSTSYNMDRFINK

`CC(C)(CN1CCCC1)NC(=O)c1ccc(N2[C@@H]3CC[C@H]2C[C@@H](NC(=O)C(C)(C)Oc2ccc(Cl)cc2Cl)C3)nc1` [Example 350, 6-(3-endo-{[2-(2,4-dichlorophenoxy)-2-methylpropanoyl]amino}-8-azabicyclo[3.2.1]oct-8-yl)-N-[2-methyl-1-(pyrrolidin-1-yl)propan-2-yl]pyridine-3-carboxamide] and `CC(C)(Oc1ccc(Cl)cc1Cl)C(=O)N[C@H]1C[C@H]2CC[C@@H](C1)N2c1cc(C(=O)NC2CC2)ccn1` [Example 143, N-cyclopropyl-2-[3-endo-({2-[(2,4-dichlorophenyl)oxy]-2-methylpropanoyl}amino)-8-azabicyclo[3.2.1]oct-8-yl]pyridine-4-carboxamide] cannot be ordered by IC50: < 200 nM for the first, < 2000 nM for the second.

`CC(C)(Oc1cc(F)ccc1Cl)C(=O)N[C@H]1C[C@H]2CC[C@@H](C1)N2c1ccc(C(=O)NC2CC2)cn1` [Example 69, 6-[3-endo-({2-[(2-chloro-5-fluorophenyl)oxy]-2-methylpropanoyl}amino)-8-azabicyclo[3.2.1]oct-8-yl]-N-cyclopropylpyridine-3-carboxamide] and `C[C@@H](NC(=O)c1ccc(N2C3CCC2CC(NC(=O)C(C)(C)Oc2ccc(F)cc2Cl)C3)nc1)C(F)(F)F` (stereo partly drawn) [Example 452, 6-(3-endo-{[2-(2-chloro-4-fluorophenoxy)-2-methylpropanoyl]amino}-8-azabicyclo[3.2.1]oct-8-yl)-N-[(2R)-1,1,1-trifluoropropan-2-yl]pyridine-3-carboxamide] cannot be ordered by IC50: < 200 nM for the first, < 200 nM for the second.

`C[C@H](NC(=O)c1ccc(N2C3CCC2CC(NC(=O)C(C)(C)Oc2cc(F)c(F)cc2Cl)C3)nc1)C(F)(F)F` (stereo partly drawn) [Example 430, 6-(3-endo-{[2-(2-chloro-4,5-difluorophenoxy)-2-methylpropanoyl]amino}-8-azabicyclo[3.2.1]oct-8-yl)-N-[(2S)-1,1,1-trifluoropropan-2-yl]pyridine-3-carboxamide] and `C[C@H](NC(=O)c1ccc(N2C3CCC2CC(NC(=O)C(C)(C)Oc2ccc(F)cc2C(F)F)C3)nc1)C(F)(F)F` (stereo partly drawn) [Example 418, 6-[3-endo-({2-[2-(difluoromethyl)-4-fluorophenoxy]-2-methylpropanoyl}amino)-8-azabicyclo[3.2.1]oct-8-yl]-N-[(2S)-1,1,1-trifluoropropan-2-yl]pyridine-3-carboxamide] cannot be ordered by IC50: < 200 nM for the first, < 200 nM for the second.

`O=C(NC1CC1)c1ccc(N2[C@@H]3CC[C@H]2C[C@@H](NC(=O)C2(c4ccc(Cl)cc4)CC2)C3)nc1` [Example 1, 6-[3-endo-({[1-(4-chlorophenyl)cyclopropyl]carbonyl}amino)-8-azabicyclo[3.2.1]oct-8-yl]-N-cyclopropylpyridine-3-carboxamide] and `O=C(NC1CC1)c1ccc(N2[C@@H]3CC[C@H]2C[C@@H](NC(=O)C2(c4ccc(Cl)cc4)CCC2)C3)nc1` [Example 50, 6-[3-endo-({[1-(4-chlorophenyl)cyclobutyl]carbonyl}amino)-8-azabicyclo[3.2.1]oct-8-yl]-N-cyclopropylpyridine-3-carboxamide] cannot be ordered by IC50: < 200 nM for the first, < 200 nM for the second.

`CC(C)(Oc1ccc(F)c(Cl)c1Cl)C(=O)N[C@H]1C[C@H]2CC[C@@H](C1)N2c1ccc(C(N)=O)cn1` [Example 97, 6-[3-endo-({2-[(2,3-dichloro-4-fluorophenyl)oxy]-2-methylpropanoyl}amino)-8-azabicyclo[3.2.1]oct-8-yl]pyridine-3-carboxamide] and `CC(C)(Oc1ccc(F)c(Cl)c1Cl)C(=O)N[C@H]1C[C@H]2CC[C@@H](C1)N2c1ccc(NS(C)(=O)=O)cn1` [Example 290, 2-[(2,3-dichloro-4-fluorophenyl)oxy]-2-methyl-N-(8-{5-[(methylsulfonyl)amino]pyridin-2-yl}-8-azabicyclo[3.2.1]oct-3-endo-yl)propanamide] cannot be ordered by IC50: < 200 nM for the first, < 200 nM for the second.

`CC(C)(Oc1ccc(Cl)cc1S(C)(=O)=O)C(=O)NC1CC2CCC(C1)N2c1ccc(C(=O)NC2CC2(F)F)cn1` (stereo not drawn) [Example 357, 6-[3-endo-({2-[4-chloro-2-(methylsulfonyl)phenoxy]-2-methylpropanoyl}amino)-8-azabicyclo[3.2.1]oct-8-yl]-N-(2,2-difluorocyclopropyl)pyridine-3-carboxamide] and `CC(C)(Oc1ccc(Cl)cc1C(F)(F)F)C(=O)N[C@H]1C[C@H]2CC[C@@H](C1)N2c1ccc(C(=O)NCC(F)F)cn1` [Example 343, 6-[3-endo-({2-[4-chloro-2-(trifluoromethyl)phenoxy]-2-methylpropanoyl}amino)-8-azabicyclo[3.2.1]oct-8-yl]-N-(2,2-difluoroethyl)pyridine-3-carboxamide] cannot be ordered by IC50: < 200 nM for the first, < 200 nM for the second.

`CC(C)(Oc1cc(F)c(F)cc1Cl)C(=O)N[C@H]1C[C@H]2CC[C@@H](C1)N2c1ccc(S(C)(=O)=O)cn1` [Example 231, 2-[(2-chioro-4,5-difluorophenyl)oxy]-2-methyl-N-{8-[5-(methylsulfonyl)pyridin-2-yl]-8-azabicyclo[3.2.1]oct-3-endo-yl}propanamide] and `CC(C)(Oc1cc(F)c(Cl)cc1Cl)C(=O)N[C@H]1C[C@H]2CC[C@@H](C1)N2c1ccc(S(N)(=O)=O)cn1` [Example 261, N-{8-[5-(aminosulfonyl)pyridin-2-yl]-8-azabicyclo[3.2.1]oct-3-endo-yl}-2-[(2,4-dichloro-5-fluorophenyl)oxy]-2-methylpropanamide] cannot be ordered by IC50: < 200 nM for the first, < 200 nM for the second.

`CC(C)(Oc1ccc(Cl)cc1Cl)C(=O)N[C@H]1C[C@H]2CC[C@@H](C1)N2c1ccc(C(=O)NC2CC2)cc1` [Example 132, N-cyclopropyl-4-[3-endo-({2-[(2,4-dichlorophenyl)oxy]-2-methylpropanoyl}amino)-8-azabicyclo[3.2.1]oct-8-yl]benzamide] and `CC(C)(Oc1ccc(Cl)cc1Cl)C(=O)N[C@H]1C[C@H]2CC[C@@H](C1)N2c1ccc(NC(=O)NCC(F)(F)F)cc1F` [Example 137, 2-[(2,4-dichlorophenyl)oxy]-N-{8-[2-fluoro-4-({[(2,2,2-trifluoroethyl)amino]carbonyl}amino)phenyl]-8-azabicyclo[3.2.1]oct-3-endo-yl}-2-methylpropanamide] cannot be ordered by IC50: < 200 nM for the first, < 200 nM for the second.

`CC(C)(Oc1ccnc2ccccc12)C(=O)N[C@H]1C[C@H]2CC[C@@H](C1)N2c1ccc(C(N)=O)cn1` [Example 318, 6-(3-endo-{[2-methyl-2-(quinolin-4-yloxy)propanoyl]amino}-8-azabicyclo[3.2.1]oct-8-yl)pyridine-3-carboxamide] and `CC(C)(Oc1ncc(Cl)cc1F)C(=O)N[C@H]1C[C@H]2CC[C@@H](C1)N2c1ccc(C(N)=O)cn1` [Example 142, 6-[3-endo-({2-[(5-chloro-3-fluoropyridin-2-yl)oxy]-2-methylpropanoyl}amino)-8-azabicyclo[3.2.1]oct-8-yl]pyridine-3-carboxamide] cannot be ordered by IC50: < 200 nM for the first, < 200 nM for the second.

`CS(=O)(=O)c1ccc(N2[C@@H]3CC[C@H]2C[C@@H](NC(=O)C2(c4ccc(F)c(C(F)(F)F)c4)CC2)C3)nc1` [Example 280, 1-[4-fluoro-3-(trifluoromethyl)phenyl]-N-{8-[5-(methylsulfonyl)pyridin-2-yl]-8-azabicyclo[3.2.1]oct-3-endo-yl}cyclopropanecarboxamide] and `NC(=O)c1ccc(N2[C@@H]3CC[C@H]2C[C@@H](NC(=O)C2(c4cccc(F)c4)CC2)C3)nc1` [Example 104, 6-[3-endo-({[1-(3-fluorophenyl)cyclopropyl]carbonyl}amino)-8-azabicyclo[3.2.1]oct-8-yl]pyridine-3-carboxamide] cannot be ordered by IC50: < 2000 nM for the first, < 200 nM for the second.

`CC(C)(Oc1ccc(F)cc1F)C(=O)N[C@H]1C[C@H]2CC[C@@H](C1)N2c1ccc(S(N)(=O)=O)cn1` [Example 294, N-{8-[5-(aminosulfonyl)pyridin-2-yl]-8-azabicyclo[3.2.1]oct-3-endo-yl}-2-[(2,4-difluorophenyl)oxy]-2-methylpropanamide] and `Cc1cc(F)ccc1OC(C)(C)C(=O)N[C@H]1C[C@H]2CC[C@@H](C1)N2c1ccc(S(C)(=O)=O)cc1` [Example 219, 2-[(4-fluoro-2-methylphenyl)oxy]-2-methyl-N-{8-[4-(methylsulfonyl)phenyl]-8-azabicyclo[3.2.1]oct-3-endo-yl}propanamide] cannot be ordered by IC50: < 200 nM for the first, < 200 nM for the second.

`CC(C)(Oc1ccc(F)cc1Cl)C(=O)N[C@H]1C[C@H]2CC[C@@H](C1)N2c1ccc(-c2nc(C(F)(F)F)n[nH]2)cn1` [Example 330, 2-[(2-chloro-4-fluorophenyl)oxy]-2-methyl-N-(8-{5-[3-(trifluoromethyl)-1H-1,2,4-triazol-5-yl]pyridin-2-yl}-8-azabicyclo[3.2.1]oct-3-endo-yl)propanamide] and `CC(C)(Oc1ccc(F)cc1Cl)C(=O)N[C@H]1C[C@H]2CC[C@@H](C1)N2c1ccc(-c2noc(C(F)(F)F)n2)cn1` [Example 276, 2-[(2-chloro-4-fluorophenyl)oxy]-2-methyl-N-(8-{5-[5-(trifluoromethyl)-1,2,4-oxadiazol-3-yl]pyridin-2-yl}-8-azabicyclo[3.2.1]oct-3-endo-yl)propanamide] cannot be ordered by IC50: < 2000 nM for the first, < 2000 nM for the second.

`CC(C)(Oc1cc(F)c(Cl)cc1Cl)C(=O)N[C@H]1C[C@H]2CC[C@@H](C1)N2c1ccc(C(=O)NCC(F)F)cn1` [Example 436, 6-(3-endo-{[2-(2,4-dichloro-5-fluorophenoxy)-2-methylpropanoyl]amino}-8-azabicyclo[3.2.1]oct-8-yl)-N-(2,2-difluoroethyl)pyridine-3-carboxamide] and `CC(C)(Oc1ccc(Cl)c(F)c1)C(=O)N[C@H]1C[C@H]2CC[C@@H](C1)N2c1ccc(C(=O)NCC(F)(F)F)cn1` [Example 77, 6-[3-endo-({2-[(4-chloro-3-fluorophenyl)oxy]-2-methylpropanoyl}amino)-8-azabicyclo[3.2.1]oct-8-yl]-N-(2,2,2-trifluoroethyl)pyridine-3-carboxamide] cannot be ordered by IC50: < 200 nM for the first, < 200 nM for the second.

In the case of `CC(C)(Oc1ncc(Cl)cc1Cl)C(=O)N[C@H]1C[C@H]2CC[C@@H](C1)N2c1ccc(C(N)=O)cn1` [Example 124, 6-[3-endo-({2-[(3,5-dichloropyridin-2-yl)oxy]-2-methylpropanoyl}amino)-8-azabicyclo[3.2.1]oct-8-yl]pyridine-3-carboxamide], the IC50 is reported as < 200 nM.

Source: patent US8163771B2, “11 β-HSD1 modulators” (Exelixis, Inc., priority 2008, dated 2012)
